In patent publication US11168086B2, “Methods of synthesizing pyrazine compounds” (Hoffmann-La Roche Inc., priority 2015, dated 2021):

Test system: HBV
Assay: HBV inhibition assay: anti-HBV activity in vitro in HepG2.2.15 cells (extracellular HBV DNA by qPCR)
Format: cell-based
Conditions: Hepatitis B virus, 120 h, five days after compound treatment, extracellular HBV DNA in culture supernatant by qPCR, concentration at which HBV replication is inhibited by 50%
Excerpt: Example 441: HBV Inhibition Assays
Cell Line and Culture Conditions:
HepG2.2.15 is a stably-transfected cell line containing the HBV genome. It is derived from the hepatoblastoma cell line Hep G2 (American Type Culture Collection, ATCC® HB-8065™) by the published procedures described in reference: MA Selles et al. Proc. Natl. Acad. Sci. USA 1987, 84, 1005-1009. The cell line was maintained in Dulbecco's modified Eagle's medium (DMEM)-F12 medium supplemented with 10% fetal bovine serum, 100 U/mL penicillin, 100 μg/mL streptomycin, and 0.5 mg/mL of G418.
Anti-HBV Activity In Vitro:
HepG2.2.15 cells were seeded into 96-well plates (3×10^4 cells in 100 μL media per well) and incubated overnight at 37° C. The test compounds were serially half-log diluted in DMSO, then diluted 100 times in culture media. 100 μL diluted compounds were added into the plates to reach 0.5% final concentration of DMSO in every well. Five days after compound treatment, culture supernatant was collected for further analysis.
For quantitative PCR detection of extracellular HBV DNA, culture supernatant was processed by Proteinase K digestion. After heat inactivation of the enzyme, the samples were subjected to HBV DNA quantification by qPCR. The effective compound concentration at which
HBV replication is inhibited by 50% (EC50) was determined.

Structure (SMILES)	EC50 [µM]
CC1Cn2ncc(N3CCCC3=O)c2CN1C(=O)Nc1cc(F)c(F)c(F)c1 (centres unmarked) [Example 183, 6-methyl-3-(2-oxopyrrolidin-1-yl)-N-(3,4,5-trifluorophenyl)-6,7-dihydro-4H-pyrazolo[1,5-a]pyrazine-5-carboxamide]	0.068
C[C@H]1Cn2ncc(-c3ccc(F)cn3)c2CN1C(=O)Nc1cc(F)c(F)c(F)c1 [Example 198, (6S)-3-(5-fluoro-2-pyridyl)-6-methyl-N-(3,4,5-trifluorophenyl)-6,7-dihydro-4H-pyrazolo[1,5-a]pyrazine-5-carboxamide]	0.03
Cc1cnn(-c2cnn3c2CN(C(=O)Nc2ccc(F)c(Cl)c2)C(C)C3)c1 (centres unmarked) [Example 199, N-(3-chloro-4-fluoro-phenyl)-6-methyl-3-(4-methylpyrazol-1-yl)-6,7-dihydro-4H-pyrazolo[1,5-a]pyrazine-5-carboxamide]	0.03
CC1Cn2ncc(-n3cc(C#N)cn3)c2CN1C(=O)Nc1ccc(F)c(Cl)c1 (centres unmarked) [Example 200, N-(3-chloro-4-fluoro-phenyl)-3-(4-cyanopyrazol-1-yl)-6-methyl-6,7-dihydro-4H-pyrazolo[1,5-a]pyrazine-5-carboxamide]	0.038
CC1Cn2ncc(-n3cc(F)cn3)c2CN1C(=O)Nc1ccc(F)c(Cl)c1 (centres unmarked) [Example 201, N-(3-chloro-4-fluoro-phenyl)-3-(4-fluoropyrazol-1-yl)-6-methyl-6,7-dihydro-4H-pyrazolo[1,5-a]pyrazine-5-carboxamide]	0.013
CC1Cn2ncc(N3CCCC3=O)c2CN1C(=O)Nc1ccc(F)c(Cl)c1 (centres unmarked) [Example 202, N-(3-chloro-4-fluoro-phenyl)-6-methyl-3-(2-oxopyrrolidin-1-yl)-6,7-dihydro-4H-pyrazolo[1,5-a]pyrazine-5-carboxamide]	0.051
CC1Cn2ncc(N3CCCC3=O)c2CN1C(=O)Nc1ccc(F)c(C(F)(F)F)c1 (centres unmarked) [Example 203, N-[4-fluoro-3-(trifluoromethyl)phenyl]-6-methyl-3-(2-oxopyrrolidin-1-yl)-6,7-dihydro-4H-pyrazolo[1,5-a]pyrazine-5-carboxamide]	0.097
CC1Cn2ncc(C3CCCC3)c2CN1C(=O)Nc1cc(F)c(F)c(F)c1 (centres unmarked) [Example 204, 3-cyclopentyl-6-methyl-N-(3,4,5-trifluorophenyl)-6,7-dihydro-4H-pyrazolo[1,5-a]pyrazine-5-carboxamide]	0.036
CC1Cn2ncc(N3CC(C)(C)CC3=O)c2CN1C(=O)Nc1ccc(F)c(Cl)c1 (centres unmarked) [Example 212, N-(3-chloro-4-fluoro-phenyl)-3-(4,4-dimethyl-2-oxo-pyrrolidin-1-yl)-6-methyl-6,7-dihydro-4H-pyrazolo[1,5-a]pyrazine-5-carboxamide]	0.033
O=C(Nc1ccc(F)c(Cl)c1)N1CCn2ncc(N3CC4CC4C3)c2C1 (centres unmarked) [Example 215, 3-[3-azabicyclo[3.1.0]hexan-3-yl]-N-(3-chloro-4-fluoro-phenyl)-6,7-dihydro-4H-pyrazolo[1,5-a]pyrazine-5-carboxamide]	0.1
CC1Cn2ncc(-c3ccc(F)cc3F)c2CN1C(=O)Nc1ccnc(C(F)F)c1 (centres unmarked) [Example 218, N-[2-(difluoromethyl)-4-pyridyl]-3-(2,4-difluorophenyl)-6-methyl-6,7-dihydro-4H-pyrazolo[1,5-a]pyrazine-5-carboxamide]	0.014
C[C@H]1Cn2ncc(N3CC(C#N)CC3=O)c2CN1C(=O)Nc1ccc(F)c(Cl)c1 (stereo partly drawn) [Example 229, (6S)—N-(3-chloro-4-fluoro-phenyl)-3-(4-cyano-2-oxo-pyrrolidin-1-yl)-6-methyl-6,7-dihydro-4H-pyrazolo[1,5-a]pyrazine-5-carboxamide]	0.047
CC1CN(C(=O)Nc2ccc(F)c(Cl)c2)Cc2c(-c3ccc(F)cc3)cnn21 (centres unmarked) [Example 230, N-(3-chloro-4-fluoro-phenyl)-3-(4-fluorophenyl)-7-methyl-6,7-dihydro-4H-pyrazolo[1,5-a]pyrazine-5-carboxamide]	0.052
C[C@H]1Cn2ncc(N3CCCC3=O)c2CN1C(=O)Nc1cc(F)c(F)c(Cl)c1 [Example 231, (6S)—N-(3-chloro-4,5-difluoro-phenyl)-6-methyl-3-(2-oxopyrrolidin-1-yl)-6,7-dihydro-4H-pyrazolo[1,5-a]pyrazine-5-carboxamide]	0.025
C[C@H]1Cn2ncc(N3CC(O)CC3=O)c2CN1C(=O)Nc1ccc(F)c(Cl)c1 (stereo partly drawn) [Example 232, (6S)—N-(3-chloro-4-fluoro-phenyl)-3-(4-hydroxy-2-oxo-pyrrolidin-1-yl)-6-methyl-6,7-dihydro-4H-pyrazolo[1,5-a]pyrazine-5-carboxamide]	0.049
C[C@H]1Cn2ncc(N3CCOCC3=O)c2CN1C(=O)Nc1cc(F)c(F)c(F)c1 [Example 233, (6S)-6-methyl-3-(3-oxomorpholin-4-yl)-N-(3,4,5-trifluorophenyl)-6,7-dihydro-4H-pyrazolo[1,5-a]pyrazine-5-carboxamide]	0.076
C[C@H]1Cn2ncc(N3CCOCC3=O)c2CN1C(=O)Nc1cc(F)c(F)c(Cl)c1 [Example 235, (6S)—N-(3-chloro-4,5-difluoro-phenyl)-6-methyl-3-(3-oxomorpholin-4-yl)-6,7-dihydro-4H-pyrazolo[1,5-a]pyrazine-5-carboxamide]	0.039
CC1Cn2ncc(N3CCOC3=O)c2CN1C(=O)Nc1ccc(F)c(Cl)c1 (centres unmarked) [Example 237, N-(3-chloro-4-fluoro-phenyl)-6-methyl-3-(2-oxooxazolidin-3-yl)-6,7-dihydro-4H-pyrazolo[1,5-a]pyrazine-5-carboxamide]	0.074
COC1CC(=O)N(c2cnn3c2CN(C(=O)Nc2ccc(F)c(Cl)c2)[C@@H](C)C3)C1 (stereo partly drawn) [Example 238, (6S)—N-(3-chloro-4-fluoro-phenyl)-3-(4-methoxy-2-oxo-pyrrolidin-1-yl)-6-methyl-6,7-dihydro-4H-pyrazolo[1,5-a]pyrazine-5-carboxamide]	0.021
C[C@H]1Cn2ncc(N3CCCC3=O)c2CN1C(=O)Nc1cc(F)c(F)c(C(F)F)c1 [Example 239, (6S)—N-[3-(difluoromethyl)-4,5-difluoro-phenyl]-6-methyl-3-(2-oxopyrrolidin-1-yl)-6,7-dihydro-4H-pyrazolo[1,5-a]pyrazine-5-carboxamide]	0.038
C[C@H]1Cn2ncc(N3CC(C#N)CC3=O)c2CN1C(=O)Nc1cc(F)c(F)c(F)c1 (stereo partly drawn) [Example 240, (6S)-3-(4-cyano-2-oxo-pyrrolidin-1-yl)-6-methyl-N-(3,4,5-trifluorophenyl)-6,7-dihydro-4H-pyrazolo[1,5-a]pyrazine-5-carboxamide]	0.016
C[C@H]1Cn2ncc(N3C[C@H](C#N)CC3=O)c2CN1C(=O)Nc1cc(F)c(F)c(F)c1 [Example 240-1, (6S)-3-[(4R)-4-cyano-2-oxo-pyrrolidin-1-yl]-6-methyl-N-(3,4,5-trifluorophenyl)-6,7-dihydro-4H-pyrazolo[1,5-a]pyrazine-5-carboxamide]	0.055
C[C@H]1Cn2ncc(N3C[C@@H](C#N)CC3=O)c2CN1C(=O)Nc1cc(F)c(F)c(F)c1 [Example 240-2, (6S)-3-[(4S)-4-cyano-2-oxo-pyrrolidin-1-yl]-6-methyl-N-(3,4,5-trifluorophenyl)-6,7-dihydro-4H-pyrazolo[1,5-a]pyrazine-5-carboxamide]	0.009
C[C@H]1Cn2ncc(N3CC(C(F)(F)F)CC3=O)c2CN1C(=O)Nc1ccnc(C(F)F)c1 (stereo partly drawn) [Example 241, (6S)—N-[2-(difluoromethyl)-4-pyridyl]-6-methyl-3-[2-oxo-4-(trifluoromethyl)pyrrolidin-1-yl]-6,7-dihydro-4H-pyrazolo[1,5-a]pyrazine-5-carboxamide]	0.075
CC1CN(c2cnn3c2CN(C(=O)Nc2cc(F)c(F)c(F)c2)[C@@H](C)C3)C(=O)CO1 (stereo partly drawn) [Example 243, (6S)-6-methyl-3-(2-methyl-5-oxo-morpholin-4-yl)-N-(3,4,5-trifluorophenyl)-6,7-dihydro-4H-pyrazolo[1,5-a]pyrazine-5-carboxamide]	0.031
C[C@H]1Cn2ncc(N3CC(C)(C)NC3=O)c2CN1C(=O)Nc1ccc(F)c(Cl)c1 [Example 245, (6S)—N-(3-chloro-4-fluoro-phenyl)-3-(4,4-dimethyl-2-oxo-imidazolidin-1-yl)-6-methyl-6,7-dihydro-4H-pyrazolo[1,5-a]pyrazine-5-carboxamide]	0.053
C[C@H]1Cn2ncc(N3CC(c4cnco4)CC3=O)c2CN1C(=O)Nc1cc(F)c(F)c(F)c1 (stereo partly drawn) [Example 247, (6S)-6-methyl-3-(4-oxazol-5-yl-2-oxo-pyrrolidin-1-yl)-N-(3,4,5-trifluorophenyl)-6,7-dihydro-4H-pyrazolo[1,5-a]pyrazine-5-carboxamide]	0.014
C[C@H]1Cn2ncc(N3CN(S(C)(=O)=O)CC3=O)c2CN1C(=O)Nc1cc(F)c(F)c(F)c1 [Example 248, (6S)-6-methyl-3-(3-methylsulfonyl-5-oxo-imidazolidin-1-yl)-N-(3,4,5-trifluorophenyl)-6,7-dihydro-4H-pyrazolo[1,5-a]pyrazine-5-carboxamide]	0.093
C[C@H]1Cn2ncc(N3CC(C)(C)OC3=O)c2CN1C(=O)Nc1cc(F)c(F)c(F)c1 [Example 250, (6S)-3-(5,5-dimethyl-2-oxo-oxazolidin-3-yl)-6-methyl-N-(3,4,5-trifluorophenyl)-6,7-dihydro-4H-pyrazolo[1,5-a]pyrazine-5-carboxamide]	0.021
